Values of other authors, collected in patent publication US7368458B2, “Bicyclic heterocycles as cannabinoid receptor modulators” (Bristol-Myers Squibb Company, priority 2005, dated 2008).
Read-outs that look alike come from different tables or passages of the source.

How the values were obtained:
[1] = chronic administration for two weeks
[2] = human subjects, 16 week trial period

Row | SMILES | body weight [1] | body weight [2]
1 | Cc1c(C(=O)NN2CCCCC2)nn(-c2ccc(Cl)cc2Cl)c1-c1ccc(I)cc1 [AM-251] | substantial body weight reduction | 
2 | Cc1c(C(=O)NN2CCCCC2)nn(-c2ccc(Cl)cc2Cl)c1-c1ccc(Cl)cc1 [SR-141716] |  | dose-dependently reduced body weight
